Laboratory results from patent US20090203577A1 (EXELIXIS, INC., priority 2005, published 2009).

Target: T1, human farnesoid X receptor (Homo sapiens, UniProt Q96RI1)
T1 construct: CMX-farnesoid X receptor (full length human farnesoid X receptor); expressed in transfected cells; host or cells: CV-1 African Green Monkey Kidney cells
T1 sequence (Q96RI1 1-472 isoform Q96RI1-2): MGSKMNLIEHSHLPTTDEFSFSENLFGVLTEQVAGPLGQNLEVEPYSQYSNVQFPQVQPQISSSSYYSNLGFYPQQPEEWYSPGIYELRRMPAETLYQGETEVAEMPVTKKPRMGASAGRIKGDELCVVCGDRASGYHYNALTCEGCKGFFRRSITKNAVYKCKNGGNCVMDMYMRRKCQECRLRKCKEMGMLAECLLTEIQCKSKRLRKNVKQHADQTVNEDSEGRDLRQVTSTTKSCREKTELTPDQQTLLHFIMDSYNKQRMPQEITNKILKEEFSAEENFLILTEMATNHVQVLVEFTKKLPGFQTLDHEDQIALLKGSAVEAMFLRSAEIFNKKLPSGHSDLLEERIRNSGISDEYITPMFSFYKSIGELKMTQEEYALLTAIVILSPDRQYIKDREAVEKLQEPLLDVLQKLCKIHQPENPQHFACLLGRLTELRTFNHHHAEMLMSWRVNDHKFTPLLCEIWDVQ
T1 sequence (P19793 1-462 partner): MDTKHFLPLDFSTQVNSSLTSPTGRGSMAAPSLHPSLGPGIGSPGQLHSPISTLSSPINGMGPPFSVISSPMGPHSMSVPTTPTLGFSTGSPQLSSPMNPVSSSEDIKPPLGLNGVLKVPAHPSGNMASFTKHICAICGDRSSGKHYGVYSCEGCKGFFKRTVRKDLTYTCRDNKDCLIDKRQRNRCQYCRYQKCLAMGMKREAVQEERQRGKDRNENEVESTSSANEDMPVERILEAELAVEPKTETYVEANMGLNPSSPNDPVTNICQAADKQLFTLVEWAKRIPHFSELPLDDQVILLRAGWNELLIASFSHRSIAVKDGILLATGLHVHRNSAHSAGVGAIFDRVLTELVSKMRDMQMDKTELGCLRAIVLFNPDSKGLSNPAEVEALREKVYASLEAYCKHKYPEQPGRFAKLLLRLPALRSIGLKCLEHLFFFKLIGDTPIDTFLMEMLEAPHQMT
Experiment: FXR in vitro assays (farnesoid X receptor/ECREx7 co-transfection assay, TR-FRET assay), Table I
Type: cell-based
Settings: for EC50: agonist activity, one or more of the in vitro assays, read-out: EC50; for Emax: read-out: % Efficacy
How it was run: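 CV-1 monkey kidney cells transfected for an FXR/ECREx7 luciferase co-transfection reporter; luciferase read 18-20 h later in lysates. 8-point dose-response at ½-log spacing, 4 wells per point; EC50/IC50 from four-parameter Hill fit, averaged over at least 3 independent experiments.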

SMILES | EC50 | Emax
CC(C)OC(=O)C1=CN(C(=O)c2ccc(-n3cccn3)cc2)CC(C)(C)c2c1[nH]c1ccccc21 [Example 141, 1-methylethyl 1,1-dimethyl-3-{[4-(1H-pyrazol-1-yl)phenyl]carbonyl}-1,2,3,6-tetrahydroazepino[4,5-b]indole-5-carboxylate] | 10 to 100 nM | > 100%
CC(C)OC(=O)C1=CN(C(=O)c2cccc(C#N)c2)CC(C)(C)c2c1[nH]c1ccccc21 [Example 142, 1-methylethyl 3-[(3-cyanophenyl)carbonyl]-1,1-dimethyl-1,2,3,6-tetrahydroazepino[4,5-b]indole-5-carboxylate] | 10 to 100 nM | > 100%
CC(C)OC(=O)C1=CN(C(=O)c2ccc(Cl)cc2Cl)CC(C)(C)c2c1[nH]c1ccccc21 [Example 143, 1-methylethyl 3-[(2,4-dichlorophenyl)carbonyl]-1,1-dimethyl-1,2,3,6-tetrahydroazepino[4,5-b]indole-5-carboxylate] | 10 to 100 nM | > 100%
Cc1cc(C(=O)N2C=C(C(=O)OC(C)C)c3[nH]c4ccccc4c3C(C)(C)C2)ccc1F [Example 144, 1-methylethyl 3-[(4-fluoro-3-methylphenyl)carbonyl]-1,1-dimethyl-1,2,3,6-tetrahydroazepino[4,5-b]indole-5-carboxylate] | 1 to 10 nM | > 100%
CC(C)OC(=O)C1=CN(C(=O)c2c(F)ccc(Cl)c2F)CC(C)(C)c2c1[nH]c1ccccc21 [Example 145, 1-methylethyl 3-[(3-chloro-2,6-difluorophenyl)carbonyl]-1,1-dimethyl-1,2,3,6-tetrahydroazepino[4,5-b]indole-5-carboxylate] | 100 to 1000 nM | > 100%
CC(C)OC(=O)C1=CN(C(=O)c2ccc(F)c(Cl)c2)CC(C)(C)c2c1[nH]c1ccccc21 [Example 147, 1-methylethyl 3-[(3-chloro-4-fluorophenyl)carbonyl]-1,1-dimethyl-1,2,3,6-tetrahydroazepino[4,5-b]indole-5-carboxylate] | 1 to 10 nM | > 100%
CC(C)OC(=O)C1=CN(C(=O)c2ccc(Cl)c(Cl)c2)CC(C)(C)c2c1[nH]c1ccccc21 [Example 148, 1-methylethyl 3-[(3,4-dichlorophenyl)carbonyl]-1,1-dimethyl-1,2,3,6-tetrahydroazepino[4,5-b]indole-5-carboxylate] | 10 to 100 nM | > 100%
CC(C)OC(=O)C1=CN(C(=O)c2cc(F)c(Cl)cc2F)CC(C)(C)c2c1[nH]c1ccccc21 [Example 149, 1-methylethyl 3-[(4-chloro-2,5-difluorophenyl)carbonyl]-1,1-dimethyl-1,2,3,6-tetrahydroazepino[4,5- ]indole-5-carboxylate] | 10 to 100 nM | > 100%
CC(C)OC(=O)C1=CN(C(=O)c2cccc(CN3CCN(S(C)(=O)=O)CC3)c2)CC(C)(C)c2c1[nH]c1ccccc21 [Example 151, 1-methylethyl 1,1-dimethyl-3-[(3-{[4-(methylsulfonyl)piperazin-1-yl]methyl}phenyl)carbonyl]-1,2,3,6-tetrahydroazepino[4,5-b]indole-5-carboxylate] | 100 to 1000 nM | > 100%
CC(C)OC(=O)C1=CN(C(=O)c2cccc(CN3CCCCCC3)c2)CC(C)(C)c2c1[nH]c1ccccc21 [Example 152, 1-methylethyl 3-{[3-(azepan-1-ylmethyl)phenyl]carbonyl}-1,1-dimethyl-1,2,3,6-tetrahydroazepino[4,5-b]indole-5-carboxylate] | 10 to 100 nM | > 100%
CC(C)OC(=O)C1=CN(C(=O)c2cccc(CN3CCCN(C)CC3)c2)CC(C)(C)c2c1[nH]c1ccccc21 [Example 153, 1-methylethyl 1,1-dimethyl-3-({3-[(4-methyl-1,4-diazepan-1-yl)methyl]phenyl}carbonyl)-1,2,3,6-tetrahydroazepino[4,5-b]indole-5-carboxylate] | 1000 to 10000 nM | > 100%
CC(C)OC(=O)C1=CN(C(=O)c2ccc(F)c(Br)c2)CC(C)(C)c2c1[nH]c1ccccc21 [Example 154, 1-methylethyl 3-[(3-bromo-4-fluorophenyl)carbonyl]-1,1-dimethyl-1,2,3,6-tetrahydroazepino[4,5-b]indole-5-carboxylate] | 10 to 100 nM | > 100%
CC(C)OC(=O)C1=CN(C(=O)c2cc(CN3CCOCC3)ccc2F)CC(C)(C)c2c1[nH]c1ccccc21 [Example 155, 1-methylethyl 3-{[2-fluoro-5-(morpholin-4-ylmethyl)phenyl]carbonyl}-1,1-dimethyl-1,2,3,6-tetrahydroazepino[4,5-b]indole-5-carboxylate] | 100 to 1000 nM | > 100%
CC(C)OC(=O)C1=CN(C(=O)c2ccc3c(c2)nnn3C)CC(C)(C)c2c1[nH]c1ccccc21 [Example 157, 1-methylethyl 1,1-dimethyl-3-[(1-methyl-1H-1,2,3-benzotriazol-5-yl)carbonyl]-1,2,3,6-tetrahydroazepino[4,5-b]indole-5-carboxylate] | 10 to 100 nM | > 100%
CC(C)OC(=O)C1=CN(C(=O)c2cccc(OCCN3CCOCC3)c2)CC(C)(C)c2c1[nH]c1ccccc21 [Example 160, 1-methylethyl 1,1-dimethyl-3-({3-[(2-morpholin-4-ylethyl)oxy]phenyl}carbonyl)-1,2,3,6-tetrahydroazepino[4,5-b]indole-5-carboxylate] |  | > 100%
CC1(C)CN(C(=O)c2ccc(F)c(F)c2)C=C(C(=O)NOCC(O)CO)c2[nH]c3ccccc3c21 (stereo not shown) [Example 161, 3-[(3,4-difluorophenyl)carbonyl]-N-[(2,3-dihydroxypropyl)oxy]-1,1-dimethyl-1,2,3,6-tetrahydroazepino[4,5-b]indole-5-carboxamide] | > 10000 nM | 
CC1(C)CN(C(=O)c2ccc(F)c(F)c2)C=C(C(=O)NCC(O)CO)c2[nH]c3ccccc3c21 (stereo not shown) [Example 162, 3-[(3,4-difluorophenyl)carbonyl]-N-(2,3-dihydroxypropyl)-1,1-dimethyl-1,2,3,6-tetrahydroazepino[4,5-b]indole-5-carboxamide] | > 10000 nM | 
CC1(C)CN(C(=O)c2ccc(F)c(F)c2)C=C(C(=O)NC(CO)CO)c2[nH]c3ccccc3c21 [Example 163, 3-[(3,4-difluorophenyl)carbonyl]-N-[2-hydroxy-1-(hydroxymethyl)ethyl]-1,1-dimethyl-1,2,3,6-tetrahydroazepino[4,5-b]indole-5-carboxamide] | 1000 to 10000 nM | > 100%
CC(C)OC(=O)C1=CN(C(=O)c2cccc(CN3CCN(C(=O)OC(C)(C)C)CC3)c2)CC(C)(C)c2c1[nH]c1ccccc21 [Example 166, 1-methyethyl 3-({3-[(4-{[(1,1-dimethylethyl)oxy]carbonyl}piperazin-1-yl)methyl]phenyl}carbonyl)-1,1-dimethyl-1,2,3,6-tetrahydroazepino[4,5-b]indole-5-carboxylate] | 100 to 1000 nM | > 100%
CC(C)OC(=O)C1=CN(C(=O)c2cccc(CN3CCN(S(=O)(=O)c4ccccc4)CC3)c2)CC(C)(C)c2c1[nH]c1ccccc21 [Example 167, 1-methylethyl 1,1-dimethyl-3-[(3-{[4-(phenylsulfonyl)piperazin-1-yl]methyl}phenyl)carbonyl]-1,2,3,6-tetrahydroazepino[4,5-b]indole-5-carboxylate] | 100 to 1000 nM | > 100%
